# Experimental data published in publication PMC5483439, “The Effect of Pungent and Tingling Compounds from Piper nigrum L. on Background K^+ Currents” (Frontiers in Pharmacology, 2017).
# Test system: mouse trigeminal neurons
# Experiment: Calcium imaging on primary cultured mouse trigeminal neurons
# Format: cell-based
# Protocol: Trigeminal ganglia neurons were isolated from Swiss CD-1 mice (Charles River Laboratories, Sulzfeld, Germany). All experiments involving animals were carried out in accordance with the European Union Community Council’s guidelines and approved by the competent state office of the Federal Land of Northrhine Westphalia (file number 87-51.04.2010.A180). At postnatal day 2–5, the mice were sacrificed by decapitation. The brain was removed, and both trigeminal ganglia were excised. The ganglia were washed in PBS+/+ (Invitrogen, Karlsruhe, Germany) and collected in Leibovitz Medium (L15, Invitrogen) on ice. The ganglia were transferred to Dulbecco’s modified essential medium (DMEM) containing 0.025% collagenase (type IA, Sigma–Aldrich). The minced ganglia were incubated for 45 min in a humidified atmosphere (37°C, 95% humidity, 6% CO2) before trituration. The cell suspension was centrifuged at 1000 rpm for 4 min at room temperature and the pellet was resuspended in F-12 medium (Invitrogen; 31331-D-MEM/F-12, GlutaMax^TM) supplemented with 10% fetal bovine serum (FBS^TM; Invitrogen), 200 U/mL penicillin and 200 U/mL streptomycin. The cell suspension (50 μL) was then plated on poly L-lysine (0.01%) coated glass coverslips (30 mm, Sarstedt, Nümbrecht, Germany), placed in cell culture dishes (35 mm) and kept in a humidified atmosphere (37°C, 95% humidity, 6% CO2) for 1 h. Subsequently, F-12 medium (2 mL) supplemented with FBS (10%), 200 U/mL penicillin and 200 U/mL streptomycin was added to each dish. The cells were kept in an incubator (37°C, 95% humidity, 6% CO2) until use. The trigeminal ganglion neurons were incubated with the Ca^2+-sensitive reporter dye Fura-2/AM (Invitrogen, final concentration: 3 μM) 30–45 min before starting the experiment. […] The emitted light (510 nm) was detected with a 12-bit 1376 × 1032-pixel charge-coupled device camera (F-View II, Olympus), and Cell® imaging software (Olympus). The changes in intracellular calcium levels were calculated as the intensity ratio of f340/f380 [(E(510) at 340 nm illumination)/(E(510) at 380 nm illumination)]. […]
structure (smiles),measurement,setting,value
"O=C(/C=C/C=C/c1ccc2c(c1)OCO2)N1CCCCC1 [1a, piperine]",trigeminal neurons showing a calcium response,100 μM,68 out of 619
same,piperine-responsive neurons still responsive in the presence of TRP antagonists,"100 μM piperine with capsazepine 5 μM and HC-030031 20 μM, 25 of 37 neurons",68%
same,piperine-responsive neurons also capsaicin-responsive,"100 μM piperine, 10 μM capsaicin, 35 of 68 neurons",51%
